± gives the expanded uncertainty stated by the source.
Details: 298.2 K, 101.33 kPa, Liquid; for viscosity: Falling or rolling sphere viscometry; for mass density: Vibrating tube method

| Structure (SMILES) | viscosity | mass density |
| --- | --- | --- |
| OCC(O)CO [glycerol] | 873.6 ± 140 mPa·s | 1257.7 ± 6.1 kg/m3 |
| C=C(C)[C@H]1CC=C(C)CC1 [(R)-1-methyl-4-(1-methylethenyl)cyclohexene] | 0.972 ± 0.12 mPa·s | 840.73 ± 6 kg/m3 |
| CCO [ethanol] | 1.04 ± 0.12 mPa·s | 786.1 ± 6 kg/m3 |
| C=CC(C)(O)CCC=C(C)C (stereo not drawn) [3,7-dimethyl-1,6-octadien-3-ol] | 4.238 ± 0.51 mPa·s | 856.25 ± 6.1 kg/m3 |
